Data: patent publication US11976083B2, “Inhibitors of peptidylarginine deiminases” (Gilead Sciences, Inc., priority 2020, dated 2024)

The compounds below were run against T1, human PAD4 (Homo sapiens, UniProt Q9UM07) (assay: In vitro PAD4 BAEE biochemical assay). Details: BAEE substrate 3 mM, 5 nM PAD4, 2 mM calcium chloride; geometric mean of multiple experiments.
T1 construct: human PAD4 (NM_012387), A2-P663, was PCR amplified; His-SUMO (N, cleaved yes); made in house; host or cells: E. coli BL21(DE3)
T1 sequence (Q9UM07 2-663): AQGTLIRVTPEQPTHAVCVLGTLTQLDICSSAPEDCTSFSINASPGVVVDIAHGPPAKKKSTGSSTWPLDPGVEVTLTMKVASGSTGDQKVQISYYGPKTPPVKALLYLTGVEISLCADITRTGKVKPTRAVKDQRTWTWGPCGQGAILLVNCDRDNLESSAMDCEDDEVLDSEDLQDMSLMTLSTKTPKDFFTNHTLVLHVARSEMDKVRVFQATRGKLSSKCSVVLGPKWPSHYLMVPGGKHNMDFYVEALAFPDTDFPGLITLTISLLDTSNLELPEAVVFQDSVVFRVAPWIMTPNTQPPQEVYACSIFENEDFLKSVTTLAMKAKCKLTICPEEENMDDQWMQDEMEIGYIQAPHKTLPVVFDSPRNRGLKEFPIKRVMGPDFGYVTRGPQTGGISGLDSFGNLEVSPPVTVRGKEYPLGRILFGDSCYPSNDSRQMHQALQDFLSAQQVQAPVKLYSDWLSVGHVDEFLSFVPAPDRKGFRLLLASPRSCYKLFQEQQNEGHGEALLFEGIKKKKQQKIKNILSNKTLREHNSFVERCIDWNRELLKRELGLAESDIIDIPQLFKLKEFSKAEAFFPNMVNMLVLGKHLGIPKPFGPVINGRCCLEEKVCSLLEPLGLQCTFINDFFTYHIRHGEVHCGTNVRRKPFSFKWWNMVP
How it was run: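 Fluorescence read-out (ex 405/em 535 nm) of isoindole formed from ammonia, o-phthalaldehyde and DTT after EDTA stop. Reaction: 5 nM PAD4, 2 mM CaCl2, 3 mM BAEE, 2 h, 25 °C, after 30 min enzyme–compound preincubation. Normalised to BB-Cl-Amidine (50 µM) and DMSO controls.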

IC50 [µM]	SMILES
0.012	COc1cc(C(=O)N2[C@H]3CC[C@@H]2[C@H](N)C3)cc2nc(-c3cc4ccc5nc4n3CCCCCn3nccc3C(=O)N[C@@H]5C)c(C)n12 [Example 32, (2~{R})-16-[7-[(1~{R},2~{R},4~{S})-2-amino-7-azabicyclo[2.2.1]heptane-7-carbonyl]-5-methoxy-3-methyl-imidazo[1,2-a]pyridin-2-yl]-2-methyl-3,8,9,15,21-pentazatetracyclo[13.5.2.0^{5,9}.0^{18,22}] docosa-1(21),5,7,16,18(22),19-hexaen-4-one]
0.248	COc1cc(C(=O)N2[C@H]3CC[C@@H]2[C@H](N)C3)cc2nc(-c3cc4ccc5nc4n3CCCCCn3ccc(n3)C(=O)N[C@@H]5C)c(C)n12 [Example 33, (2~{R})-15-[7-[(1~{R},2~{R),4~{S})-2-amino-7-azabicyclo[2.2.1]heptane-7-carbonyl]-5-methoxy-3-methyl-imidazo[1,2-a]pyridin-2-yl]-2-methyl-3,8,14,20,22-pentazatetracyclo[12.5.2.1^{5,8}.0^{17,21}] docosa-1(20),5(22),6,15,17(21),18-hexaen-4-one]
0.054	COc1cc(C(=O)N2[C@H]3CC[C@@H]2[C@H](N)C3)cc2nc(-c3cc4ccc5nc4n3CCCCn3nccc3C(=O)N[C@@H]5C)c(C)n12 [Example 34, (2~{R})-15-[7-[(1~{R},2~{R},4~{S})-2-amino-7-azabicyclo[2.2.1]heptane-7-carbonyl]-5-methoxy-3-methyl-imidazo[1,2-a]pyridin-2-yl]-2-methyl-3,8,9,14,20-pentazatetracyclo[12.5.2.0^{5,9}.0^{17,21}] henicosa-1(20),5,7,15,17(21),18-hexaen-4-one]
0.034	COc1cc(C(=O)N2[C@H]3CC[C@@H]2[C@H](N)C3)cc2nc(-c3cc4ccc5nc4n3CCCCCCn3nccc3C(=O)N[C@@H]5C)c(C)n12 [Example 35, (2~{R})-17-[7-[(1~{R},2~{R},4~{S})-2-amino-7-azabicyclo[2.2.1]heptane-7-carbonyl]-5-methoxy-3-methyl-imidazo[1,2-a]pyridin-2-yl]-2-methyl-3,8,9,16,22-pentazatetracyclo[14.5.2.0^{5,9).0^{19,23}] tricosa-1(22),5,7,17,19(23),20-hexaen-4-one]
0.372	COc1cc(C(=O)N2[C@H]3CC[C@@H]2[C@H](N)C3)cc2nc(-c3cc4ccc5nc4n3CCCCCCn3ccc(n3)C(=O)N[C@@H]5C)c(C)n12 [Example 36, (2~{R})-16-[7-[(1~{R},2~{R},4~{S})-2-amino-7-azabicyclo[2.2.1]heptane-7-carbonyl]-5-methoxy-3-methyl-imidazo[1,2-a]pyridin-2-yl]-2-methyl-3,8,15,21,23-pentazatetracyclo[13.5.2.1^{5,8}.0^{18,22}] tricosa-1(21),5(23),6,16,18(22),19-hexaen-4-one]
0.553	COc1cc(C(=O)N2[C@H]3CC[C@@H]2[C@H](N)C3)cc2nc(-c3cc4ccc5nc4n3CCCCc3cccc(n3)C(=O)N[C@@H]5C)n(C)c12 [Example 37, (2~{R})-15-[5-[(1~{R},2~{R},4~{S})-2-amino-7-azabicyclo[2.2.1]heptane-7-carbonyl]-7-methoxy-1-methyl-benzimidazol-2-yl]-2-methyl-3,14,20,22-tetrazatetracyclo[12.5.2.1^{5,9}.0^{17,21}] docosa-1(20),5,7,9(22),15,17(21),18-heptaen-4-one]
1.2	COc1cc(C(=O)N2[C@H]3CC[C@@H]2[C@H](N)C3)cc2nc(-c3cc4ccc5nc4n3CCCCc3cccc(c3F)C(=O)N[C@@H]5C)n(C)c12 [Example 38, (2~{R})-15-[5-[(1~{R},2~{R},4~{S})-2-amino-7-azabicyclo[2.2.1]heptane-7-carbonyl]-7-methoxy-1-methyl-benzimidazol-2-yl]-22-fluoro-2-methyl-3,14,20-triazatetracyclo[12.5.2.1^{5,9}.0^{17,21}] docosa-1(20),5,7,9(22),15,17(21),18-heptaen-4-one]
